Data from patent US9108903B2, “Amides as modulators of sodium channels” (VERTEX PHARMACEUTICALS INCORPORATED, priority 2013, dated 2015).

molecular target: human Nav1.8 (Homo sapiens (Human), UniProt Q9Y5Y9); assay: E-VIPR optical membrane potential assay with electrical stimulation; format: cell-based; settings: HEK cells expressing human Nav1.8
Description: Assays for Detecting and Measuring NaV Inhibition Properties of Compounds E-VIPR Optical Membrane Potential Assay Method with Electrical Stimulation
Sodium channels are voltage-dependent proteins that can be activated by inducing membrane voltage changes by applying electric fields. The electrical stimulation instrument and methods of use are described in Ion Channel Assay Methods PCT/US01/21652, herein incorporated by reference and are referred to as E-VIPR. The instrument comprises a microtiter plate handler, an optical system for exciting the coumarin dye while simultaneously recording the coumarin and oxonol emissions, a waveform generator, a current- or voltage-controlled amplifier, and a device for inserting electrodes in well. Under integrated computer control, this instrument passes user-programmed electrical stimulus protocols to cells within the wells of the microtiter plate.
24 hours before the assay on E-VIPR, HEK cells expressing human Nav1.8 were seeded in 384-well poly-lysine coated plates at 15,000-20,000 cells per well. HEK cells were grown in media (exact composition is specific to each cell type and NaV subtype) supplemented with 10% FBS (Fetal Bovine Serum, qualified; GibcoBRL #16140-071) and 1% Pen-Strep (Penicillin-Streptomycin; GibcoBRL #15140-122). Cells were grown in vented cap flasks, in 90% humidity and 5% CO2.
100 mg/mL Pluronic F-127 (Sigma #P2443), in dry DMSO
Compound Plates: 384-well round bottom plate, e.g. Corning 384-well Polypropylene Round Bottom #3656
Cell Plates: 384-well tissue culture treated plate, e.g. Greiner #781091-1B
Bath1 buffer: Glucose 10 mM (1.8 g/L), Magnesium Chloride (Anhydrous), 1 mM (0.095 g/L), Calcium Chloride, 2 mM (0.222 g/L), HEPES 10 mM (2.38 g/L), Potassium Chloride, 4.5 mM (0.335 g/L), Sodium Chloride 160 mM (9.35 g/L).
Hexyl Dye Solution: Bath1 Buffer+0.5% β-cyclodextrin (make this prior to use, Sigma #C4767), 8 μM CC2-DMPE+2.5 μM DiSBAC6(3). To make the solution added volume of 10% Pluronic F127 stock equal to volumes of CC2-DMPE+DiSBAC6(3). The order of preparation was first mix Pluronic and CC2-DMPE, then added DiSBAC6(3) while vortexing, then added Bath1+β-Cyclodextrin.
1) Pre-spotted compounds (in neat DMSO) into compound plates. Vehicle control (neat DMSO), the positive control (20 mM DMSO stock tetracaine, 125 μM final in assay) and test compounds were added to each well at 160× desired final concentration in neat DMSO. Final compound plate volume was 80 μL (80-fold intermediate dilution from 1 μL DMSO spot; 160-fold final dilution after transfer to cell plate). Final DMSO concentration for all wells in assay was 0.625%.
2) Prepared Hexyl Dye Solution.
3) Prepared cell plates. On the day of the assay, medium was aspirated and cells were washed three times with 100 μL of Bath1 Solution, maintaining 25 μL residual volume in each well.
4) Dispensed 25 μL per well of Hexyl Dye Solution into cell plates. Incubated for 20-35 minutes at room temp or ambient conditions.
5) Dispensed 80 μL per well of Bath1 into compound plates. Acid Yellow-17 (1 mM) was added and Potassium Chloride was altered from 4.5 to 20 mM depending on the NaV subtype and assay sensitivity.
6) Washed cell plates three times with 100 μL per well of Bath1, leaving 25 μL of residual volume. Then transfered 25 uL per well from Compound Plates to Cell Plates. Incubated for 20-35 minutes at room temp/ambient condition.
7) Read Plate on E-VIPR. Used the current-controlled amplifier to deliver stimulation wave pulses for 10 seconds and a scan rate of 200 Hz. A pre-stimulus recording was performed for 0.5 seconds to obtain the un-stimulated intensities baseline. The stimulatory waveform was followed by 0.5 seconds of post-stimulation recording to examine the relaxation to the resting state.
Data was analyzed and reported as normalized ratios of emission intensities measured in the 460 nm and 580 nm channels. The response as a function of time was reported as the ratios obtained using the following formula: […]

human Nav1.8, sequence (Q9Y5Y9 whole entry): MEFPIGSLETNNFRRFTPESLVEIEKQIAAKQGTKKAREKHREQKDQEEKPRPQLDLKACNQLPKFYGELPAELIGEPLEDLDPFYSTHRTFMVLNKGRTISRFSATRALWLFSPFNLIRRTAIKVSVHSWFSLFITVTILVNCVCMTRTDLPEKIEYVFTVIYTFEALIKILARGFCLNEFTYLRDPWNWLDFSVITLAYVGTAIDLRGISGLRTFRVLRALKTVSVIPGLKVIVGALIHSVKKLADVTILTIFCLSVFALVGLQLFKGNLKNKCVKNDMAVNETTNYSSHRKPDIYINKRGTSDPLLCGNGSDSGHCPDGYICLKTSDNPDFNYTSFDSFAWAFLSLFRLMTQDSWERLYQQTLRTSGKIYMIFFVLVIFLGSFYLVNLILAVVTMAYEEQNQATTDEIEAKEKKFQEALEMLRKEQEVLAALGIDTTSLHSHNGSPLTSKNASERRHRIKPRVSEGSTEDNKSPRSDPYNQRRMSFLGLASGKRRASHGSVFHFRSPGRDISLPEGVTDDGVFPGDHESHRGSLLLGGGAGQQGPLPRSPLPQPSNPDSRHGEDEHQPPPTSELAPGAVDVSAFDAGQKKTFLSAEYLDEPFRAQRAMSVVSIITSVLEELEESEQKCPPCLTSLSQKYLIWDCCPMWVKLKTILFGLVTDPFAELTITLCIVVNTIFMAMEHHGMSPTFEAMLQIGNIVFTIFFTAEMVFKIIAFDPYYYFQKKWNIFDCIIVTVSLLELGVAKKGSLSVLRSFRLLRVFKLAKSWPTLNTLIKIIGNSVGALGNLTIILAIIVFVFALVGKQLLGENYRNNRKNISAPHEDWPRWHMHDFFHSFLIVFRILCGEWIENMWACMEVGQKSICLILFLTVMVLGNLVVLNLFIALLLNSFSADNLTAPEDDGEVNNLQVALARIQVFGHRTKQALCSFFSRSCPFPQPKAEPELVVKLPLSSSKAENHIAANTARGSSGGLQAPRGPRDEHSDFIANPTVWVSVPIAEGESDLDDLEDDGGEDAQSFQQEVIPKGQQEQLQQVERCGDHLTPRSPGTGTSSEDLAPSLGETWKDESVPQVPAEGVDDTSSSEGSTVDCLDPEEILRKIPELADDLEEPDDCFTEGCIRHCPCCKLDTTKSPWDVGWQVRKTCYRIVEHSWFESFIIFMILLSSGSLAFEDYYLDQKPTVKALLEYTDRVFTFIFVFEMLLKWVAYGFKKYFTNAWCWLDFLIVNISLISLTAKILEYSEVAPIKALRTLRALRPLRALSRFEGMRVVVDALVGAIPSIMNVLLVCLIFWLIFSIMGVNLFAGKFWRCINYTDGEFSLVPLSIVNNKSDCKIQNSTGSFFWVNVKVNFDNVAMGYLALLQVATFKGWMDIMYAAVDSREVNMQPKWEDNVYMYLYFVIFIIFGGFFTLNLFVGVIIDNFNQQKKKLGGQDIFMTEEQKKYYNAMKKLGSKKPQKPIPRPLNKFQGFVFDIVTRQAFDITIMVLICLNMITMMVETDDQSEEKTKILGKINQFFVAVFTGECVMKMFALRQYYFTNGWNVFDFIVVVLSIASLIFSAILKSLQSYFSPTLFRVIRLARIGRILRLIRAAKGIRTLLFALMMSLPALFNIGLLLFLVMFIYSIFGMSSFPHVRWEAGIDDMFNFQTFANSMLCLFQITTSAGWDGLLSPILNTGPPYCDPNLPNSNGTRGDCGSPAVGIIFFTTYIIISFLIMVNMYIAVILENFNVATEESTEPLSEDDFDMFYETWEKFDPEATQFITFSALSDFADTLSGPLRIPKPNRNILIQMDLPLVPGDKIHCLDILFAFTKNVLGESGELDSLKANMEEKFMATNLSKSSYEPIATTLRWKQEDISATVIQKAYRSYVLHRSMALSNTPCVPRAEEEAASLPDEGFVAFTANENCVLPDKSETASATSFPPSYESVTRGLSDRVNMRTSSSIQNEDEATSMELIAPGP

Row | SMILES | IC50
1 | COc1cc(F)ccc1Oc1cc(Cl)c(Cl)cc1C(=O)Nc1ccc(C(=O)O)nc1 [Compound 51, 5-(4,5-dichloro-2-(4-fluoro-2-methoxyphenoxy)benzamido)picolinic acid] | 9 nM
2 | COc1cc(F)ccc1Oc1cc(C(C)(C)C)ccc1C(=O)Nc1ccc(C(=O)O)nc1 [Compound 52, 5-(4-(tert-butyl)-2-(4-fluoro-2-methoxyphenoxy)benzamido)picolinic acid] | 31 nM
3 | Cc1cc(F)ccc1Oc1cc(C(C)(C)C)ccc1C(=O)Nc1ccc(C(=O)O)nc1 [Compound 53, 5-(4-(tert-butyl)-2-(4-fluoro-2-methylphenoxy)benzamido)picolinic acid] | 46 nM
4 | CC(C)(C)c1ccc(C(=O)Nc2ccc(C(=O)O)nc2)c(Oc2ccc(F)cc2)c1 [Compound 54, 5-(4-(tert-butyl)-2-(4-fluorophenoxy)benzamido)picolinic acid] | 180 nM
5 | O=C(O)c1ccc(NC(=O)c2ccccc2Oc2ccc(F)cc2)cn1 [Compound 55, 5-(2-(4-fluorophenoxy)benzamido)picolinic acid] | 4350 nM
6 | O=C(O)c1ccc(NC(=O)c2ccc(C(F)(F)F)cc2Oc2ccc(F)cc2)cn1 [Compound 56, 5-(2-(4-fluorophenoxy)-4-(trifluoromethyl)benzamido)picolinic acid] | 250 nM
7 | O=C(O)c1ccc(NC(=O)c2cc(C(F)(F)F)ccc2Oc2ccccc2OC(F)F)cn1 [Compound 60, 5-(2-(2-(difluoromethoxy)phenoxy)-5-(trifluoromethyl)benzamido)picolinic acid] | 650 nM
8 | O=C(O)c1ccc(NC(=O)c2cc(C(F)(F)F)ccc2Oc2ccccc2)cn1 [Compound 70, 5-(2-phenoxy-5-(trifluoromethyl)benzamido)picolinic acid] | 985 nM
9 | O=C(O)c1ccc(NC(=O)c2cc(C(F)(F)F)ccc2Oc2ccc(F)cc2)cn1 [Compound 71, 5-(2-(4-fluorophenoxy)-5-(trifluoromethyl)benzamido)picolinic acid] | 285 nM
10 | COc1cc(F)ccc1Oc1cc(C(F)(F)C(F)(F)F)ccc1C(=O)Nc1ccc(C(=O)O)nc1 [Compound 72, 5-(2-(4-fluoro-2-methoxyphenoxy)-4-(perfluoroethyl)benzamido)picolinic acid] | 35 nM
11 | O=C(O)c1ccc(NC(=O)c2ccc(C(F)(F)C(F)(F)F)cc2Oc2ccc(F)cc2)cn1 [Compound 73, 5-(2-(4-fluorophenoxy)-4-(perfluoroethyl)benzamido)picolinic acid] | 110 nM
12 | O=C(O)c1ccc(NC(=O)c2c(Oc3ccc(F)cc3Cl)cccc2C(F)(F)F)cn1 [Compound 74, 5-(2-(2-chloro-4-fluorophenoxy)-6-(trifluoromethyl)benzamido)picolinic acid] | 405 nM

Second part, the molecule after the results:

Row | IC50 | SMILES
13 | 96 nM | COc1cc(F)ccc1Oc1ccc(C(F)(F)F)cc1C(=O)Nc1ccc(C(=O)O)nc1 [Compound 57, 5-(2-(4-fluoro-2-methoxyphenoxy)-5-(trifluoromethyl)benzamido)picolinic acid]
14 | 80 nM | O=C(O)c1ccc(NC(=O)c2cc(C(F)(F)F)ccc2Oc2ccc(F)cc2Cl)cn1 [Compound 58, 5-(2-(2-chloro-4-fluorophenoxy)-5-(trifluoromethyl)benzamido)picolinic acid]
15 | 740 nM | COc1ccc(F)cc1Oc1ccc(C(F)(F)F)cc1C(=O)Nc1ccc(C(=O)O)nc1 [Compound 59, 5-(2-(5-fluoro-2-methoxyphenoxy)-5-(trifluoromethyl)benzamido)picolinic acid]
16 | 145 nM | Cc1cc(Cl)ccc1Oc1ccc(C(F)(F)F)cc1C(=O)Nc1ccc(C(=O)O)nc1 [Compound 61, 5-(2-(4-chloro-2-methylphenoxy)-5-(trifluoromethyl)benzamido)picolinic acid]
17 | 370 nM | COc1ccccc1Oc1ccc(C(F)(F)F)cc1C(=O)Nc1ccc(C(=O)O)nc1 [Compound 62, 5-(2-(2-methoxyphenoxy)-5-(trifluoromethyl)benzamido)picolinic acid]
18 | 430 nM | O=C(O)c1ccc(NC(=O)c2cc(C(F)(F)F)ccc2Oc2ccccc2Cl)cn1 [Compound 63, 5-(2-(2-chlorophenoxy)-5-(trifluoromethyl)benzamido)picolinic acid]
19 | 755 nM | CC(C)Oc1ccccc1Oc1ccc(C(F)(F)F)cc1C(=O)Nc1ccc(C(=O)O)nc1 [Compound 64, 5-(2-(2-isopropoxyphenoxy)-5-(trifluoromethyl)benzamido)picolinic acid]
20 | 39 nM | COc1ccc(Oc2ccc(C(F)(F)F)cc2C(=O)Nc2ccc(C(=O)O)nc2)c(OC)c1 [Compound 65, 5-(2-(2,4-dimethoxyphenoxy)-5-(trifluoromethyl)benzamido)picolinic acid]
21 | 68 nM | COc1cc(Cl)ccc1Oc1ccc(C(F)(F)F)cc1C(=O)Nc1ccc(C(=O)O)nc1 [Compound 66, 5-(2-(4-chloro-2-methoxyphenoxy)-5-(trifluoromethyl)benzamido)picolinic acid]
22 | 79 nM | COc1ccc(Oc2ccc(C(F)(F)F)cc2C(=O)Nc2ccc(C(=O)O)nc2)c(C)c1 [Compound 67, 5-(2-(4-methoxy-2-methylphenoxy)-5-(trifluoromethyl)benzamido)picolinic acid]
23 | 135 nM | COc1ccc(Oc2ccc(C(F)(F)F)cc2C(=O)Nc2ccc(C(=O)O)nc2)c(Cl)c1 [Compound 68, 5-(2-(2-chloro-4-methoxyphenoxy)-5-(trifluoromethyl)benzamido)picolinic acid]
24 | 135 nM | COc1c(F)cccc1Oc1ccc(C(F)(F)F)cc1C(=O)Nc1ccc(C(=O)O)nc1 [Compound 69, 5-(2-(3-fluoro-2-methoxyphenoxy)-5-(trifluoromethyl)benzamido)picolinic acid]
25 | 108 nM | Cc1cc(F)ccc1Oc1ccc(C(F)(F)F)cc1C(=O)Nc1ccc(C(=O)O)nc1 [Compound 75, 5-(2-(4-fluoro-2-methylphenoxy)-5-(trifluoromethyl)benzamido)picolinic acid]
